Results published in patent US20060122222A1, “Heterocycle substituted carboxylic acids” (The Institutes for Pharmaceutical Discovery, LLC, priority 2004, published 2006).

Compound | melting point
O=C(O)CCNc1cc(-c2ccc(-c3cccc4c3oc3ccccc34)cc2)nc(-c2ccccc2)n1 [Example 46, 3-[2-phenyl-6-(4-dibenzofuran-4-yl-phenyl)-pyrimidin-4-ylamino]-propionic acid] | 210 °C (dec.)
CCc1ccc(-c2sc(NC(=O)c3ccc(S(=O)(=O)N4CCCC4C(=O)O)cc3)nc2-c2ccc(Cl)cc2)cc1 (stereo not drawn) [Example 5, 1-{4-[4-(4-Chloro-phenyl)-5-(4-ethyl-phenyl)-thiazol-2-ylcarbamoyl]-benzenesulfonyl}-pyrrolidine-2-carboxylic acid] | 289 to 292 °C
O=C(O)CCNc1cc(-c2ccc(-c3cccc4c3oc3ccccc34)cc2)nc(Cc2ccccc2)n1 [Example 45, 3-[2-Benzyl-6-(4-dibenzofuran-4-yl-phenyl)-pyrimidin-4-ylamino]-propionic acid] | 205 °C (dec.)
O=C(O)C(=O)Nc1cc(-c2ccc(-c3cccc4c3oc3ccccc34)cc2)cn(Cc2ccccc2)c1=O [Example 4, N-[1-Benzyl-5-(4-dibenzofuran-4-yl-phenyl)-2-oxo-1,2-dihydro-pyridin-3-yl]-oxalamic acid] | 220 to 223 °C
O=C(O)[C@@H]1CSC(c2ccc(-c3ccc(-n4ccc5ccccc54)cc3)cc2)N1 (stereo in doubt) [Example 27, 2-(4′-Indol-1-yl-biphen-4-yl)thiazolidine-4-carboxylic acid] | 135 to 137 °C (dec.)
O=C(O)[C@@H]1CSC(c2ccc(-c3ccc(-c4c(Cc5ccccc5)oc5ccccc45)cc3)cc2)N1 (mixture of isomers) [Example 38, (2RS, 4R)-2-[4′-(2-Benzylbenzofuran-3-yl)biphen-4-yl]thiazolidine-4-carboxylic acid] | 148 °C (dec.)
